Results as given in a melting point compilation (Tetko et al.; mined from patent text by program, amines drawn as free bases though some values may be those of a salt).

SMILES	melting point
CNc1nc(Nc2ccc(Cl)c(Cl)c2)ncc1NS(C)(=O)=O	263 to 266 °C
CCOC(=O)Cc1c(C(=O)O)c(CC)c(C(=O)c2ccc(Cl)cc2)n1C	184 to 186 °C
CC1(C)CC(=C(c2ccc(O)cc2)c2ccc(C#CCCC(=O)O)cc2)CC(C)(C)C1	233 to 234 °C
COc1ccc(C(c2ccc(N(C)C)cc2)c2ccc(N(C)C)cc2C(=O)O)cc1 (stereo not given)	185 to 190 °C
C=CC(=O)N(C1CC(C)(C)NC(C)(C)C1)C1CC(C)(C)NC(C)(C)C1	115 to 118 °C
CC(=O)N[C@@H](CCC(=O)O)C(N)=O	85 to 87 °C
CCNC(=O)c1ncn2c1CN=C(c1ccccc1Br)c1cc(F)ccc1-2	218 to 220 °C
O=c1ccc(S(=O)(=O)c2oc3ccccc3c2-c2ccccc2)n[nH]1	> 220 °C
COc1ccc(N2CCN(c3c(C)c(C)c4c(c3C)CC(C)(CN(Cc3ccccc3)Cc3ccccc3)O4)CC2)cc1 (stereo not given)	168 to 170 °C
COc1nc2cc(C(c3ccccc3)n3ccnc3)ccc2[nH]1 (stereo not given)	110 °C
CN(C)C(=S)SC(C[N+](=O)[O-])c1cccs1 (stereo not given)	88 to 90 °C
COC(OC)c1c(SC(F)(F)F)c(C#N)nn1-c1c(Cl)cc(C(F)(F)F)cc1Cl	93 °C
CC(C)(C)c1cc(CCc2n[nH]c(=O)o2)cc(C(C)(C)C)c1O	120 to 123 °C
O=C(NCc1cccc([N+](=O)[O-])c1)c1[nH]c2ccc(Cl)cc2c1S(=O)(=O)c1ccccc1	253 to 254 °C
CCCCCCc1cccc(NC2=NCCS2)c1	79 to 80 °C
Nc1nc2ccccc2n(-c2ccc(Cl)cc2)c1=O	254 to 255 °C
CC(C)(C)c1ccc(COc2ccc(CSc3ccc(OCC(=O)O)c4c3CCC4)cc2)cc1	152 to 153 °C
COC1=C(Cc2ccc3ccccc3c2)C(=O)CC1	70 to 71 °C
Cc1cc(-c2cccnc2)cc2ccc(=O)[nH]c12	236 °C
COC(=O)COc1ccc(OC/C=C(/c2ccc(I)cc2)c2ccc3oc(C)cc3c2)cc1C	121 to 128 °C
COc1ccc(C(=O)NCC[C@@H](O)C(=O)O)cc1	104 °C
Cc1cc([N+](=O)[O-])c(O)cc1Cl	70 to 71 °C
Cc1ccccc1C(=C1CN(C(c2ccccc2)c2ccccc2)C1)S(C)(=O)=O	218 °C

SMILES	melting point
Cc1cccc(C)c1CNc1cc(C(=O)N(C)C)nc2c(CO)c(C)[nH]c12	301 °C
CC(C)c1cc(C(C)C)c(CC(=O)NS(=O)(=O)Oc2c(C(C)C)cc(NCCO)cc2C(C)C)c(C(C)C)c1	149 to 152 °C
COc1cc(Cl)ccc1CCl	43 to 45 °C
CC1(C)C=C(c2ccccn2)C2=C(CC=CC(C#N)=C2)C1	120 °C
Cc1cccc(-c2nc(C(C)(C)C)n(C)n2)n1	106 °C
CCN(CC)CCn1nc2c3c(c(NCCNCCO)ccc31)Sc1c(OC)ccc(OC)c1-2	119 to 123 °C
COc1ccc(Br)c2ccc(C(F)(F)F)nc12	84 to 85 °C
O=C(O)CCOc1cccc(/C=C/c2nc3ccccc3s2)c1	177 to 178 °C
COC(=O)c1ccc(Cl)cc1NC(=O)Cc1cccc(C#Cc2ccccc2)c1	100 to 101 °C
C=CCOc1ccc2c(c1)CCC(=O)N2	123 to 125 °C
O=C(Nc1nc(-c2ccccc2)cs1)C(=O)Nc1nc(-c2ccccc2)cs1	292 to 293 °C
O=C(O)Cc1c(C(=O)c2ccc(Cl)cc2)[nH]c2ccc(Cl)cc12	220 to 224 °C
O=C1c2cc(Cl)c(Cl)cc2CN2C(=NO)CCC12 (stereo not given)	245 to 246 °C
Cc1sc2c(Br)c3ccccc3c(-c3cc(C(C)C)c(O)c(C(C)C)c3)c2c1C	212 to 216 °C
CCCCc1oc2ccccc2c1C(=O)NCc1ccc2cc(O)ccc2c1	155 to 156 °C
CCOC(=O)CN(C)c1ccc(N=C=S)cc1	90 to 91 °C
COc1cc(CC(C#N)=CNc2ccccc2)cc(OC)c1NC=O	186 to 187 °C
Cc1nc(C(O)(Cn2cncn2)c2ccc(Cl)cc2)sc1C (stereo not given)	174 °C
Cc1cc(C(=O)NC(C#N)c2ccccc2)n(C)n1 (stereo not given)	135 to 136 °C
N#CC(=Cc1cccnc1)c1cc(Cl)cc(Cl)c1	139 to 141 °C
O=C(CNC(=O)OC(c1ccccc1)c1ccccc1)Oc1c(Cl)c(Cl)c(Cl)c(Cl)c1Cl	171 to 172 °C
CN(C)C(=O)c1ccc(C(=O)Nc2cccc3cc(Br)cnc23)cc1	196 to 198 °C
CC(C)(O)c1cnc2c(NC(=O)c3c(Cl)cccc3Cl)cccc2c1	187 to 189 °C

SMILES	melting point
N#CCSC(C(=O)O)c1ccccc1 (stereo not given)	110 to 112 °C
CCOC(=O)Nc1ccc2oc(-c3ccccc3)cc2c1	164 °C
CCn1nc2c(N)nc3ccccc3c2c1CO	255 to 256 °C
Nc1cnc2ccc(-c3ccccc3)cc2c1Nc1ccccc1Br	174 to 177 °C
CCCCn1c2c(c3ccccc3c1=O)C(=O)c1cc3c(cc1-2)OCO3	200 to 201 °C
Sc1c(Br)cc(Br)c(Br)c1S	125 to 127 °C
N#Cc1cnc2cnc(F)cc2c1Nc1ccc(F)c(Cl)c1	108 to 111 °C
O=C(OCN1C(=O)c2ccccc2S1(=O)=O)c1c(Cl)cncc1Cl	159 to 160 °C
CCOC(=O)c1nc2scc(CN(C)Cc3ccccc3)c2c(=O)[nH]1	129 °C
CC(=O)Oc1cccc(C(=O)Nc2ccc3ccc(Cl)nc3n2)c1	207 °C
COc1ccc(CN(c2ccc(F)c(Cl)c2)c2ncnc3cc(OCCCN4CCOCC4)c([N+](=O)[O-])cc23)cc1OC	129 to 132 °C
CCc1nc2cnc3cc(O)ccc3c2n1CC(C)C	> 250 °C
Brc1ccc(-c2cnc(COCc3cc4ccccc4o3)o2)cc1	80 to 82 °C
COc1cccc(-n2c(-c3sc(Nc4ccccc4)nc3-c3ccccc3)nc3ccccc3c2=O)c1	250 to 252 °C
O=C(O)c1csc2ccc(OS(=O)(=O)c3ccccc3)cc12	202 to 203 °C
COC(=O)c1cc(C(C)=O)cs1	94 to 96 °C
C=CCNc1nc(NCC(C)(C)C)nc2ccc([N+](=O)[O-])cc12	167 to 168 °C
CCc1cc2c(s1)-n1c(C)nnc1C(CCCC(=O)O)N=C2c1ccc(Cl)cc1 (stereo not given)	185 to 187 °C
NS(=O)(=O)c1ccccc1-c1ccc(Cn2c(-c3ccccc3)nc(Cl)c2C=O)cc1	215 °C
COc1cc2c(cc1-c1ccccc1F)NC(=O)CC(c1ccnc(C#N)c1)=N2	240 to 242 °C
CNC(=S)C1=C(O)C2(CCOCC2)Oc2ccc([N+](=O)[O-])cc21	217 to 218 °C
CCCNCC(O)COc1ccccc1CCCc1cccc2[nH]ccc12 (stereo not given)	99 to 100 °C
C[C@@H]1C(=O)N(c2ccc(C#N)c(Cl)c2)[C@@H](C)[C@H]1O	149 to 151 °C

Other lines, results leading:

melting point	SMILES
136 to 142 °C	COC1CCN(c2c(Cl)cc3c4c(cccc24)C(=O)N(O)C3=O)C1 (stereo not given)
192 to 194 °C	CC(C)(C)OC(=O)CN1CCN(c2ccnc(-c3nc(=O)c4ccccc4s3)c2)C1=O
163 to 164 °C	COc1ccc(C2=NN(C3Cc4ccccc4C3)C(=O)[C@H]3CC=CC[C@@H]23)cc1OC (relative stereo)
218 to 219 °C	O=C(Nc1cc(-c2c(-c3ccc(Cl)cc3)nc3cccnn23)ccn1)c1ccccc1
238 to 240 °C	O=S1(=O)N=CN(C2CCC2)c2cc(Cl)c(Cl)cc21
145 to 147 °C	Nc1ccc2c(c1)CC(NS(=O)(=O)c1ccc(Cl)cc1)C2 (stereo not given)
197 °C	CC(=O)NC[C@H]1CN(c2ccc(N3CCC(n4nccn4)CC3)c(F)c2)C(=O)O1
153 to 155 °C	OC(CCc1ccoc1)c1cnc2sc3c(n12)CCCCC3 (stereo not given)
151 to 153 °C	COC(=O)C(=CNc1ccc(O)cc1)C(=O)C=CC1CC=CCC1 (stereo not given)
185 to 187 °C	OCC1OC(n2cnc3c(NC4CCCCC4)ncnc32)C(O)C1O (stereo not given)
86 to 87 °C	NC(=O)C1CCCN(C(c2ccccc2)c2ccccc2)C1 (stereo not given)
281 to 282 °C	O=C(c1ccc(-c2nc(C(=O)O)co2)cc1)c1cccnc1
170 to 173 °C	CC(=O)n1ccc(N2CCCC2)c1C(=O)c1cccnc1Nc1cccc(Cl)c1
111 to 112 °C	CNS(=O)(=O)c1cc(OC)c(OC)c(C(=O)NCC2CCCN2C)c1 (stereo not given)
138 °C	CC(C)=CCN1[C@H](C)Cn2c(=S)[nH]c3cccc(c32)[C@@H]1C (relative stereo)
> 230 °C	CSc1nn2c(N3CCN(C)CC3)cc(C)nc2c1S(=O)(=O)c1ccc(C(C)C)cc1

melting point	SMILES
220 to 221 °C	Cc1nc(-c2ccc(F)cc2)n(-c2ccc(S(N)(=O)=O)cc2)n1
181 to 185 °C	C[C@@H](NS(=O)(=O)c1ccc(-c2c(C#N)c3cc(Cl)ncc3n2C2CCC2)nc1)C(F)(F)F
84 to 85 °C	COc1ccc(C(OC2CCN(CC(=O)O)CC2)c2ccccc2)cc1 (stereo not given)
255 to 258 °C	CC(=O)Nc1ccc2oc(-c3ccc(OCc4ccccc4)cc3)c(O)c(=O)c2c1
159 to 161 °C	CC(=O)NCC1CN(c2ccc(N3CCS(=O)CC3)c(F)c2)C(=O)O1 (stereo not given)
167 to 170 °C	Cc1nccn1-c1ccc(COc2cc(F)cc(C3(C(N)=S)CCOCC3)c2)cc1
194 to 196 °C	CN1C(=O)CC[C@]2(C)c3ccc(C(=O)Oc4ccccc4)cc3CC[C@@H]12
233 to 236 °C	O=C(O)c1cn(-c2nncs2)c2cc(F)c(F)cc2c1=O
174 to 176 °C	CSc1nn2c(Cl)cc(CN3CCOCC3)nc2c1S(=O)(=O)c1ccccc1
260 to 262 °C	Cc1c(N2CC(O)C2)c(F)cc2c(=O)c(C(=O)O)cn(C3CC3)c12
155 to 165 °C	O=C(O)[C@H]1CCC(=O)[C@@H](n2nc(-c3c(-c4ccccc4)nn4ccccc34)ccc2=O)C1 (relative stereo)
50 to 51.5 °C	COC(=O)CCC(=O)c1cc(OC)ccc1OCC1CO1 (stereo not given)
132 to 139 °C	Fc1ccc(-c2ccn(C3CCN(Cc4ccccc4)CC3)c2-c2ccncc2)cc1
154 to 156 °C	CC(=O)NCCC1=CCc2ccc3nc(C)oc3c21
175 to 180 °C	COc1ccc2c3c(oc2c1)CC(C(=O)O)CC3 (stereo not given)
